# Test results reported in US5525598A, “Gallium (III) complexes in pharmaceutical compositions” (Collery; Phillippe, priority 1991, dated 1996).
# Where two headings read alike, the source gives them in different places.
# Tests used:
# T4 lymphocytes [1] = details: cited from earlier work
# [2] = tested on: human immunodeficiency virus (HIV-1); details: cited from earlier work; for EC50: read-out: EC50 (anti-HIV activity)
# [3] = per os, aqueous formulation, therapeutical dosages; EP-B1-0059148; cited from earlier work
# sarcoma 180 = sarcoma 180 system
# Protocol: The gallium complexes were administered to animals bearing the P-388 leukaemia or the sarcoma 180 system and the average survival time (T) of the treated animals was compared with the average survival of control animals C. A high value T/C is characteristic of an antitumoral activity. [formula]
# [4] = tested on: human immunodeficiency virus (HIV-1); test: Anti-HIV-1 activity, protection of T4 lymphocytes from killing by virus (NCI XTT assay); assay type: cell-based
# Text: (§1) The gallium (III) complexes were screened for anti-HIV-1 activity at the National Cancer Institute, Bethesda, Md., as part of their in vitro Anti-AIDS Drug Discovery Program. The assay is based on the killing (cytopathic effect) of T4 lymphocytes by human immunodeficiency virus (HIV-1) and is designed to evaluate the drug effects at any stage of the virus reproductive cycle. […] All tests are compared with a positive control done at the same time and under identical conditions employing 3'-Azido-3'-deoxythymidine (AZT).
# (§2) The general procedure is reprinted below from NCI infomation sheets:
# (§3) 1. Candidate agent is dissolved in dimethylsulfoxide, then diluted 1:2000 in cell culture medium. […] dilutions (half-log10) are prepared before adding to 96-well microtiter plated.
# (§4) 2. T4 lymphocytes (CEN cell line) are exposed to HIV at a virus-to-cell ratio of approximately 0.05 and are plated along with noninfected control cells into drug-containing wells or wells with medium alone.
# (§5) 3. Cultures are incubated at 37° C. in a 5% carbon dioxide atmosphere for 6 days.
# (§6) 4. The tetrazolium salt, XTT, is added to all wells, and cultures are incubated to allow formazon colour development by viable cells.
# (§7) 5. Individual wells are analysed spectrophotometrically to quantitate formazon production and, in addition, are viewed microscopically for detection of viable cells and confirmation of protective activity.
# (§8) 6. Drug-treated virus-infected cells are compared with drug-treated noninfected cells and with other appropriate controls (untreated infected and untreated noninfected cells, drug-containing wells without cells, etc.) on the same plate.
# (§9) 7. Data reviewed in comparison with other tests done at the same time, and a determination about activity is made.
# T4 lymphocytes [5] = test: Drug effect on noninfected T4 lymphocytes (NCI XTT assay), IC50; assay type: cell-based
# Text: as §1, §2, §3, §4, §5, §6, §7, §8, §9
# [6] = tested on: reverse transcriptase of Rauscher murine leukemia virus; details: in vitro; Waalkes et al. 1974; cited from earlier work
# refractory lymphomas = details: phase II trials, patients with refractory lymphomas; Foster et al. 1986; cited from earlier work
# [7] = tested on: experimental animal tumors; details: Adamson et al. 1975; cited from earlier work
# P-388 leukaemia = test: Antitumor activity, P-388 leukaemia, survival T/C; assay type: in vivo; details: P 388 system
# [8] = CEM-SS, values from O. S. Weislow et al.
# [9] = CEM, values from R. Vince et al.
molecule,measurement,setting,value
"Cc1cn([C@H]2C[C@H](N=[N+]=[N-])[C@@H](CO)O2)c(=O)[nH]c1=O [AZT, 3'-Azido-3'-deoxythymidine]",IC50,T4 lymphocytes [1]; [8],191 µM
same,IC50,T4 lymphocytes [1]; [9],689 µM
same,TI = IC50 /EC50,[2]; [8],1027
same,EC50,[2]; [8],0.186 µM
same,TI = IC50 /EC50,[2]; [9],3680
same,EC50,[2]; [9],0.187 µM
"[Cl-].[Cl-].[Cl-].[Ga+3] [GaCl3, gallium (III) chloride]",renal toxicity,[3],no renal toxicity
O=S(=O)([O-])c1ccc([O-])c2ncccc12.O=S(=O)([O-])c1ccc([O-])c2ncccc12.O=S(=O)([O-])c1ccc([O-])c2ncccc12.[Ga+3].[K+].[K+].[K+] [Tris-(5-sulfono-8-hydroxyquinoline)gallium(III)-potassium salt],T/C (survival time of treated versus control animals),sarcoma 180,153%
"Cc1ccn[nH]1.Cc1ccn[nH]1.Cc1ccn[nH]1.Cc1ccn[nH]1.[Cl-].[Cl-].[Cl][Ga-]([Cl])([Cl])[Cl].[Ga+3] [[(3-mpyr)4 GaCl2]GaCl4, trans-Dichlorotetrakis-(5-methylpyrazole)gallium (III) tetrachlorogallate (III)]",EC50,[4]; CEM-6,108 µM
same,TI = IC50 /EC50,[4]; CEM-6,1.52
same,IC50,T4 lymphocytes [5]; CEM-6,164 µM
"Cc1cn[nH]c1.Cc1cn[nH]c1.Cc1cn[nH]c1.Cc1cn[nH]c1.[Cl-].[Cl-].[Cl][Ga-]([Cl])([Cl])[Cl].[Ga+3] [[(4-mpyr)4 GaCl2]GaCl4, trans-Dichlorotetrakis-(4-methylpyrazole)gallium(II) tetrachlorogallate(III)]",EC50,[4]; CEM-6,231 µM
same,TI = IC50 /EC50,[4]; CEM-6,1.11
same,EC50,[4]; CEM-IW,50.2 µM
same,TI = IC50 /EC50,[4]; CEM-IW,3.92
same,IC50,T4 lymphocytes [5]; CEM-6,256 µM
same,IC50,T4 lymphocytes [5]; CEM-IW,197 µM
O=[N+]([O-])[O-].O=[N+]([O-])[O-].O=[N+]([O-])[O-].[Ga+3] [gallium nitrate],inhibition of reverse transcriptase,[6],inhibits the reverse transcriptase
same,antitumor activity,refractory lymphomas,exhibits antitumor activity
same,antitumor activity,[7],had shown antitumor activity
"Dichloro-(2-α-oxybenzylbenzimidzoiato-N,O)gallium(III) [(HBB)GaCl2]",T/C (survival time of treated versus control animals),P-388 leukaemia,130%
same,EC50,[4]; CEM-IW,43 µM
same,TI = IC50 /EC50,[4]; CEM-IW,5.14
same,IC50,T4 lymphocytes [5]; CEM-IW,221 µM
trans-Dichlorotetrakis-(benzimidazole)gallium(III) chloride [[(bim)4 GaCl2]Cl],EC50,[4]; CEM-6,5.01 µM
same,TI = IC50 /EC50,[4]; CEM-6,76.9
same,IC50,T4 lymphocytes [5]; CEM-6,385 µM
